For the assay, the target named is Cezanne 1 (Homo sapiens (Human), UniProt Q6GQQ9). Briefly: Cezanne 1 biochemical IC50 assay. The conditions noted are these: FLAG-Cezanne 1 purified from HEK293T cells; fluorescence polarisation, TAMRA labelled peptide linked to ubiquitin; 30 min preincubation, 2 hr read; read-out: IC50 range. The protocol: The Cezanne 1 construct was PCR amplified and cloned into a pFLAG-CMV-6c vector (Sigma-Aldrich) with an N-terminal FLAG tag. HEK293T cells were transfected with FLAG-Cezanne 1 using TransIT-LT1 transfection reagent (Mirus) according to the manufacturer's instructions. Cells were harvested 48 hours after transfection. Cells were washed once with PBS and scraped in lysis buffer (50 mM Tris, pH 7.5, 150 mM NaCl, 3 mM EDTA, 0.5% NP40, 10% glycerol, 5 mM beta-mercaptoethanol, protease inhibitors (complete mini, Roche) and phosphatase inhibitors (PhosSTOP mini, Roche). Lysates were incubated for 30 min on ice and centrifuged at 4000 rpm for 10 min at 4° C. Soluble supernatant was added to FLAG affinity resin (EZview Red ANTI-FLAG M2 affinity gel, Sigma-Aldrich) equilibrated in low salt buffer (20 mM Tris, pH 7.5, 150 mM NaCl, 0.5 mM EDTA, 5 mM beta-mercaptoethanol) and incubated at 4° C. for 3 hours rotating. The resin was spun at 2000 rpm for 2 min and the supernatant was removed. The resin was washed two times with low salt buffer and one time with high salt buffer (20 mM Tris, pH 7.5, 500 mM NaCl, 0.5 mM EDTA, 5 mM beta-mercaptoethanol, protease inhibitors (complete mini, Roche) and phosphatase inhibitors (PhosSTOP mini, Roche). To elute the bound Cezanne 1, elution buffer (10 mM Tris, pH 7.5, 150 mM NaCl, 0.5 mM EDTA, 10% glycerol, 0.5% NP40, 5 mM beta-mercaptoethanol, 0.15 mg/ml 3× FLAG peptide (Sigma-Aldrich)) was added to the resin and incubated at 4° C. for 2.5 hours while rotating. The resin was centrifuged at 4000 rpm for 30 seconds, and the supernatant containing purified FLAG-Cezanne 1 was removed and stored at −80° C.
Chain of Cezanne 1 (Q6GQQ9 whole entry): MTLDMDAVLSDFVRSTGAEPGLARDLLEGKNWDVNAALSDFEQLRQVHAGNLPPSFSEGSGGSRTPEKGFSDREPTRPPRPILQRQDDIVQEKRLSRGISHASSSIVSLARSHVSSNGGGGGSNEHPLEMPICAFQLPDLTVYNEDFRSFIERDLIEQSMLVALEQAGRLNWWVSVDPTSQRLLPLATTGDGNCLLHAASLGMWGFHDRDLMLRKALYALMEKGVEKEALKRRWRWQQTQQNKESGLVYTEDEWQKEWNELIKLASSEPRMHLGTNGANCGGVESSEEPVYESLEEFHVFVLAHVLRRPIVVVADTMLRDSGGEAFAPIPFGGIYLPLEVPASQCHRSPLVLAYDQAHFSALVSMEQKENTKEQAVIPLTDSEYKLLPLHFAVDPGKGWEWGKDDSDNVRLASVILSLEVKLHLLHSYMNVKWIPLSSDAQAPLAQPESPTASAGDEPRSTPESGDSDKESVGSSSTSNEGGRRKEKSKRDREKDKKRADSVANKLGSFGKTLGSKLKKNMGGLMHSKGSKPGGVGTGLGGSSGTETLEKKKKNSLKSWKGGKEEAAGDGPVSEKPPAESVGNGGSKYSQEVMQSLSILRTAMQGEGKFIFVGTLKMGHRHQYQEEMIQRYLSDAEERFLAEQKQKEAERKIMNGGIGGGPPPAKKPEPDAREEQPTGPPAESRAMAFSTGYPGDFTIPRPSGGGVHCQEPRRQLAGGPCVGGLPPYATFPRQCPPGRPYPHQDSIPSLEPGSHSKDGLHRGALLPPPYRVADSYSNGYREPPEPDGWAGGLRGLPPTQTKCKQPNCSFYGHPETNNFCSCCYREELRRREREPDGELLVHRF
Dilution plates were prepared at 21 times the final concentration (2100 μM for a final concentration of 100 μM) in 50% DMSO in a 96-well polypropylene V-bottom plate (Greiner #651201). A typical 8-point dilution series to be 100, 30, 10, 3, 1, 0.3, 0.1, […]. Reactions were performed in duplicate in black 384 well plates (small volume, Greiner 784076) in a final reaction volume of 21 μl. Either 1 μl of 50% DMSO or diluted compound was added to the plate. Cezanne 1 was diluted in reaction buffer (40 mM Tris, pH 7.5, 0.005% Tween 20, 0.5 mg/ml BSA, 5 mM—beta-mercaptoethanol) to the equivalent of 0.005 μl/well and 10 μl of diluted Cezanne 1 was added to the compound. Enzyme and compound were incubated for 30 min at room temp. Reactions were initiated by the addition of 50 nM of TAMRA labelled peptide linked to ubiquitin via an iso-peptide bond as fluorescence polarisation substrate. Reactions were read immediately after addition of substrate and following a 2 hr incubation at room temperature. Readings were performed on a Pherastar Plus (BMG Labtech). λ Excitation 540 nm; λ Emission 590 nm.

pIC50: −log10 of the molar value.

Consider `N#CN1CCC(F)(C(=O)Nc2ccc(Cl)c(C(F)(F)F)c2)C1` (stereo not shown) [Example 1, N-(4-chloro-3-(trifluoromethyl)phenyl)-1-cyano-3-fluoropyrrolidine-3-carboxamide], for which the negative-log IC50 (pIC50) is 5.00 to 6.00. As for `N#CN1CCC(F)(C(=O)Nc2nc(-c3ccccc3)cs2)C1` (stereo not shown) [Example 2, 1-cyano-3-fluoro-N-(4-phenylthiazol-2-yl)pyrrolidine-3-carboxamide], the pIC50 was 5.00 to 6.00. To `N#CN1CCC(F)(C(=O)Nc2ccc3ncsc3c2)C1` (stereo not shown) [Example 3, N-(benzo[d]thiazol-6-yl)-1-cyano-3-fluoropyrrolidine-3-carboxamide] belongs 6.00 to 7.00; to `N#CN1CCC(F)(C(=O)Nc2cnc3ccccc3c2)C1` (stereo not shown) [Example 4, 1-cyano-3-fluoro-N-(quinolin-3-yl)pyrrolidine-3-carboxamide], 5.00 to 6.00; to `N#CN1CCC(F)(C(=O)Nc2ccc3ncccc3c2)C1` (stereo not shown) [Example 5, 1-cyano-3-fluoro-N-(quinolin-6-yl)pyrrolidine-3-carboxamide], 5.00 to 6.00. Take `Cc1nc(-c2cccc(NC(=O)C3(F)CCN(C#N)C3)c2)cs1` (stereo not shown) [Example 6, 1-cyano-3-fluoro-N-(3-(2-methylthiazol-4-yl)phenyl)pyrrolidine-3-carboxamide]: the negative logarithm of the IC50 (pIC50) was 5.00 to 6.00. To `N#CN1CCC(F)(C(=O)Nc2cccc(Oc3ccccc3)c2)C1` (stereo not shown) [Example 7, 1-cyano-3-fluoro-N-(3-phenoxyphenyl)pyrrolidine-3-carboxamide] belongs 5.00 to 6.00; to `N#CN1CCC(F)(C(=O)Nc2ncc(-c3ccccc3)s2)C1` (stereo not shown) [Example 8, 1-cyano-3-fluoro-N-(5-phenylthiazol-2-yl) pyrrolidine-3-carboxamide], 6.00 to 7.00; to `N#CN1CC[C@](F)(C(=O)Nc2ncc(-c3ccccc3)s2)C1` [Example 9, (R)-1-cyano-3-fluoro-N-(5-phenylthiazol-2-yl) pyrrolidine-3-carboxamide], 6.00 to 7.00. In the case of `N#CN1CCC(F)(C(=O)Nc2cc(-c3ccccc3)on2)C1` (stereo not shown) [Example 10, 1-cyano-3-fluoro-N-(5-phenylisoxazol-3-yl)pyrrolidine-3-carboxamide], the negative logarithm of the IC50 (pIC50) is 6.00 to 7.00. In the case of `N#CN1CCC(F)(C(=O)Nc2cn(-c3ccccc3)cn2)C1` (stereo not shown) [Example 11, 1-cyano-3-fluoro-N-(1-phenyl-1H-imidazol-4-yl)pyrrolidine-3-carboxamide], the pIC50 was 5.00 to 6.00. Turning to `N#CN1CC[C@@](F)(C(=O)Nc2cnn(-c3ccccc3)c2)C1` [Example 12, (S)-1-cyano-3-fluoro-N-(1-phenyl-1H-pyrazol-4-yl)pyrrolidine-3-carboxamide], the pIC50 is 5.00 to 6.00. The value for `N#CN1CC[C@](F)(C(=O)Nc2cnn(-c3ccccc3)c2)C1` [Example 13, (R)-1-cyano-3-fluoro-N-(1-phenyl-1H-pyrazol-4-yl)pyrrolidine-3-carboxamide] was greater than 7.00; that for `N#Cc1ccc(-n2cnc(NC(=O)[C@@]3(F)CCN(C#N)C3)c2)cc1` [Example 14, (R)-1-cyano-N-(1-(4-cyanophenyl)-1H-imidazol-4-yl)-3-fluoropyrrolidine-3-carboxamide] was 5.00 to 6.00. The value for `N#CN1CC[C@](F)(C(=O)Nc2cnn(Cc3ccccc3)c2)C1` [Example 15, (R)—N-(1-benzyl-1H-pyrazol-4-yl)-1-cyano-3-fluoropyrrolidine-3-carboxamide] was 5.00 to 6.00; that for `N#CN1CCC(F)(C(=O)Nc2nc3ccc(-c4cn[nH]c4)cc3s2)C1` (stereo not shown) [Example 16, N-(6-(1H-pyrazol-4-yl)benzo[d]thiazol-2-yl)-1-cyano-3-fluoropyrrolidine-3-carboxamide] was 5.00 to 6.00. To `N#CN1CCC(F)(C(=O)Nc2nc3ccc(-c4ccccc4)cc3s2)C1` (stereo not shown) [Example 17, 1-cyano-3-fluoro-N-(6-phenylbenzo[d]thiazol-2-yl)pyrrolidine-3-carboxamide] belongs 5.00 to 6.00. In the case of `N#CN1CCC(F)(C(=O)Nc2ncc(-c3cccc4[nH]ncc34)s2)C1` (stereo not shown) [Example 18, N-(5-(1H-indazol-4-yl)thiazol-2-yl)-1-cyano-3-fluoropyrrolidine-3-carboxamide], the pIC50 was 6.00 to 7.00. The value for `N#CN1CCC(F)(C(=O)Nc2cc(-c3ccccc3)no2)C1` (stereo not shown) [Example 20, 1-cyano-3-fluoro-N-(3-phenylisoxazol-5-yl)pyrrolidine-3-carboxamide] was 6.00 to 7.00. To `N#CN1CC[C@](F)(C(=O)Nc2cc(-c3ccccc3)no2)C1` [Example 21, (R)-1-cyano-3-fluoro-N-(3-phenylisoxazol-5-yl)pyrrolidine-3-carboxamide] belongs 6.00 to 7.00; to `N#CN1CCC(F)(C(=O)Nc2ncc(-c3cccc(C(N)=O)c3)s2)C1` (stereo not shown) [Example 22, N-(5-(3-carbamoylphenyl)thiazol-2-yl)-1-cyano-3-fluoropyrrolidine-3-carboxamide], 6.00 to 7.00; to `CNC(=O)c1cccc(-c2cnc(NC(=O)C3(F)CCN(C#N)C3)s2)c1` (stereo not shown) [Example 23, 1-cyano-3-fluoro-N-(5-(3-(methylcarbamoyl)phenyl)thiazol-2-yl)pyrrolidine-3-carboxamide], 6.00 to 7.00. To `CNC(=O)c1cccc(-c2cnc(NC(=O)[C@@]3(F)CCN(C#N)C3)s2)c1` [Example 24, (R)-1-cyano-3-fluoro-N-(5-(3-(methylcarbamoyl)phenyl)thiazol-2-yl)pyrrolidine-3-carboxamide] belongs 6.00 to 7.00.

Take `N#CN1CCC(F)(C(=O)Nc2ncc(-c3cccc(-n4ccnc4)c3)s2)C1` (stereo not shown) [Example 25, N-(5-(3-(1H-imidazol-1-yl)phenyl)thiazol-2-yl)-1-cyano-3-fluoropyrrolidine-3-carboxamide]: the negative-log IC50 (pIC50) is 6.00 to 7.00. As to `N#CN1CCC(F)(C(=O)Nc2cc(-c3cccc(-n4ccnc4)c3)no2)C1` (stereo not shown) [Example 26, N-(3-(3-(1H-imidazol-1-yl)phenyl)isoxazol-5-yl)-1-cyano-3-fluoropyrrolidine-3-carboxamide], the negative-log IC50 (pIC50) is 6.00 to 7.00. To `N#CN1CC[C@](F)(C(=O)Nc2cc(-c3cccc(-n4ccnc4)c3)no2)C1` [Example 27, (R)—N-(3-(3-(1H-imidazol-1-yl)phenyl)isoxazol-5-yl)-1-cyano-3-fluoropyrrolidine-3-carboxamide] belongs 6.00 to 7.00; to `N#CN1CCC(F)(C(=O)Nc2cn3cc(-c4ccn[nH]4)ccc3n2)C1` (stereo not shown) [Example 28, N-(6-(1H-pyrazol-5-yl)imidazo[1,2-a]pyridin-2-yl)-1-cyano-3-fluoropyrrolidine-3-carboxamide], 6.00 to 7.00. The value for `CNC(=O)c1cccc(-c2ccc3nc(NC(=O)C4(F)CCN(C#N)C4)sc3c2)c1` (stereo not shown) [Example 29, 1-cyano-3-fluoro-N-(6-(3-(methylcarbamoyl)phenyl)benzo[d]thiazol-2-yl)pyrrolidine-3-carboxamide] was 5.00 to 6.00.

These data come from US10590075B2, “Cyanopyrrolidine derivatives as inhibitors for DUBs” (Mission Therapeutics Limited, priority 2015, dated 2020).
